Data on 9 molecules can be found in US5486516A, “Furopyrimidine derivatives” (DowElanco, priority 1993, dated 1996).

Assay [1] deals with Puccinia recondita tritici (leaf rust). Kind of assay: Plant pathology screen (Test 1), leaf rust on wheat. The note with it: in Triticum aestivum, foliar, read-out: LEAF RUST control rating.
Experimental: (§5) This screen was used to evaluate the efficacy of the present compounds against a variety of different organisms that cause plant diseases.
(§6) The test compounds were formulated for application by dissolving 50 mg of the compound into 1.25 ml of solvent. The solvent was prepared by mixing 50 ml of "Tween 20" (polyoxyethylene (20) sorbitan monolaurate emulsifier) with 475 ml of acetone and 475 ml of ethanol. The solvent/compound solution was diluted to 125 ml with deionized water. The resulting formulation contains 400 ppm test chemical. Lower concentrations were obtained by serial dilution with the solvent-surfactant mixture.
The formulated test compounds were applied by foliar spray.
(§7) The formulated technical compounds were sprayed on all foliar surfaces of the host plants (or cut berry) to past run-off. Single pots of each host plant were placed on raised, revolving pedestals in a fume hood. Test solutions were sprayed on all foliar surfaces. All treatments were allowed to dry and the plants were inoculated with the appropriate pathogens within 2-4 hours.
(§8) The effectiveness of test compounds in controlling disease was rated using the following scale.
For assay [2], the system named is Botrytis cinerea (gray mold). As to the kind of experiment: Plant pathology screen (Test 1), gray mold on grape berries. Conditions: read-out: GRAY MOLD control rating.
Experimental: as §5, §6
(§9) The formulated test compounds were applied by foliar spray. The following plant pathogens and their corresponding plants were employed.
as §7, §8
The subject of assay [3] is southern armyworm (Spodopetra eridania Cramer). Kind of assay: Mite/insect screen, Southern armyworm. It counts as in vivo. The note with it: Spodoptera eridania, sprayed leaves, read-out: SAW results (percent mortality); for mortality at 200 ppm: rate 200 ppm; for mortality at 400 ppm: rate 400 ppm. On the procedure: (§1) The compounds of Examples were tested for miticidal and insecticidal activity in the following mite/insect screen.
(§2) Each test compound was formulated by dissolving the compound in acetone/alcohol (50:50) mixture containing 23 g of "TOXIMUL R" (sulfonate/nonionic emulsifier blend) and 13 g of "TOXIMUL S" (sulfonate/nonionic emulsifier blend) per liter. These mixtures were then diluted with water to give the indicated concentrations.
(§3) Twospotted spider mites (Tetranychus urticae Koch) and melon aphids (Aphis gossvpii Glover) were introduced on squash cotyledons and allowed to establish on both leaf surfaces. Other plants in the same treatment pot were left uninfested. The leaves were then sprayed with 5 ml of test solution using a DeVilbiss atomizing sprayer at 10 psi. Both surfaces of the leaves were covered until runoff, and then allowed to dry for one hour. Two uninfested leaves were then excised and placed into a Petri dish containing larval southern armyworm (Spodopetra eridania Cramer).
(§4) After standard exposure periods, percent mortality and phytotoxicity were evaluated. […] The following abbreviations are used in Table 3:
SAW refers to Southern armyworm

Assay [4] relates to Twospotted spider mites (Tetranychus urticae Koch). As to the kind of experiment: Mite/insect screen, twospotted spider mites. Format: in vivo. The note with it: Tetranychus urticae, sprayed leaves, read-out: SM results (percent mortality); for mortality at 200 ppm: rate 200 ppm; for mortality at 400 ppm: rate 400 ppm. On the procedure:
as §1, §2, §3, §4
SM refers to twospotted spider mites

The subject of assay [5] is Erysiphe graminis tritici (powdery mildew). As to the kind of experiment: Plant pathology screen (Test 1), powdery mildew on wheat. Conditions: Blumeria graminis, in Triticum aestivum, foliar, read-out: POWD MDEW control rating.
Assay [6] relates to Pseudoperonospora cubensis (downy mildew). Kind of assay: Plant pathology screen (Test 1), downy mildew on squash. The note with it: foliar, read-out: DOWN MDEW control rating.
Experimental: as §6, §9, §7, §8
Assay [7] deals with melon aphids (Aphis gossvpii Glover). Kind of assay: Mite/insect screen, melon aphids. It counts as in vivo. The note with it: Aphis, sprayed leaves, read-out: MA results (percent mortality); for mortality at 200 ppm: rate 200 ppm; for mortality at 400 ppm: rate 400 ppm. On the procedure:
as §1, §2, §3, §4
MA refers to melon aphids.

Assay [8] deals with Pyricularia oryzae (rice blast). As to the kind of experiment: whole plant or invertebrate. Format: in vivo. Conditions: foliar, read-out: RICE BLAST control rating.
The subject of assay [9] is Southern corn rootworm (Diabrotica undecimpuctata howardi Barber). As to the kind of experiment: Mite/insect screen, corn rootworm. Conditions: Diabrotica, soil, read-out: CRW results (percent mortality); for mortality at 12 ppm: CRW rate 12.00 ppm; for mortality at 24 ppm: CRW rate 24.00 ppm. It counts as in vivo. On the procedure:
as §1, §2
Activity on Southern corn rootworm (Diabrotica undecimpuctata howardi Barber) was evaluated by adding two ml of tap water, a presoaked corn seed, and 15 g of dry sandy soil to a one ounce plastic container. The soil was treated with 1 mL of test solution containing a predetermined concentration of test compound. After six to 12 hours of drying, five 2-3 instar corn rootworm larvae were added to the individual cups, which were then capped and held at 23° C.
as §4
CRW refers to corn rootworm

Turning to `Cc1cc2c(NCCc3cccc(C(F)(F)F)c3)ncnc2o1` [Example 8, 6-methyl-N-[2-[3-(trifluoromethyl)phenyl]ethyl]furo[2,3-d]pyrimidin-4-amine], the pest or weed control at 400 µg/mL in assay [1] fell in the range of 90 to 100%; in assay [2], 0 to 19%; in assay [5], 20 to 89%; in [6], 90 to 100%; in [8] it was 20 to 89%. For the same molecule, the mortality at 200 ppm in assay [3], in assay [4] and in assay [7] was 0% throughout. Besides, the mortality at 400 ppm in [3], in assay [4] and in assay [7] was 0% throughout. Further, the mortality (in general, the percentage killed) at 12 ppm in [9] turned out to be 0%. In addition, the mortality at 24 ppm in assay [9] is 0%.
`CCOc1ccc(CCNc2ncnc3oc(C)cc23)cc1` [Example 9, 6-methyl-N-[2-(4-ethoxyphenyl)ethyl]furo(2,3-d]pyrimidin-4-amine]: the pest or weed control at 400 µg/mL in assay [1] fell in the range of 90 to 100%; in assay [2], 0 to 19%; in assay [5], 0 to 19%; in [6] it was 20 to 89%; in [8] it was 0 to 19%. Besides, the mortality at 200 ppm in [3], in assay [4] and in assay [7] was 0% in each case. Also, the mortality at 400 ppm in [3], in [4] and in [7] was 0% each time. The mortality at 12 ppm in assay [9] is 0%. For the same molecule, the mortality at 24 ppm in assay [9] was determined as 0%.
Take `Cc1oc2ncnc(NCCc3ccc(Cl)cc3)c2c1C` [Example 10, N-(2-(4-chlorophenyl)ethyl]-5,6-dimethylfuro[2,3-d]pyrimidin-4-amine]: the pest or weed control at 400 µg/mL in [1] was 20 to 89%; in assay [2], 0 to 19%; in assay [5] it was 0 to 19%; in assay [6], 20 to 89%; in assay [8] it was 90 to 100%. The mortality at 200 ppm in assay [3], in assay [4] and in assay [7] was 0% in each case. Also, the mortality at 400 ppm in assay [3], in [4] and in assay [7] was 0% in each case. In [9], the mortality at 12 ppm stood at 0%. Moreover, in assay [9], the mortality at 24 ppm came out at 0%.
On to `Cc1coc2ncnc(NCCc3ccc(Cl)cc3)c12` [Example 11, 5-methyl-N-[2-(4-chlorophenyl)ethyl]furo[2,3-d]pyrimidin-4-amine], for which the pest or weed control at 400 µg/mL in [1] is 90 to 100%; in assay [2], 0 to 19%; in assay [5], 20 to 89%; in assay [6], 90 to 100%; in [8] it was 90 to 100%. The mortality at 200 ppm stood at 0% in assay [3], 30% in assay [4] and 90% in assay [7]. Also, the results for the mortality at 400 ppm in assay [3], in assay [4] and in assay [7] were 60%, 0% and 0%, respectively. Moreover, the mortality at 12 ppm in assay [9] turned out to be 0%. For the same molecule, the mortality at 24 ppm in [9] was 0%.
Consider `Cc1oc2ncnc(NCCc3ccccc3)c2c1C` [Example 12, 5,6-dimethyl-N-(2-phenylethyl)furo[2,3-d]pyrimidin-4-amine], for which the pest or weed control at 400 µg/mL in assay [1] lay in the range of 90 to 100%; in assay [2], 0 to 19%; in assay [5] it was 0 to 19%; in [6], 90 to 100%; in assay [8], 20 to 89%. Besides, the mortality at 200 ppm in [3], in [4] and in [7] was 0% each time. For the same molecule, the mortality at 400 ppm in [3], in [4] and in assay [7] was 0% in each case. The mortality at 12 ppm in assay [9] was 0%. Moreover, in [9], the mortality at 24 ppm amounted to 0%.
For `Cc1oc2ncnc(OCCCc3cccnc3)c2c1C` [Example 13, 5,6-dimethyl-4-[3-(3-pyridinyl)propoxy]furo[2,3-d]pyrimidine], the pest or weed control at 400 µg/mL in [1], in assay [2], in assay [5], in [6] and in [8] was 0 to 19% throughout. The mortality at 200 ppm in assay [3], in assay [4] and in [7] was 0% in each case. Also, the mortality at 400 ppm in [3], in assay [4] and in assay [7] was 0% throughout. Further, in assay [9], the mortality at 12 ppm was 0%. Besides, in assay [9], the mortality at 24 ppm was 100%.
On to `Cc1oc2ncnc(NCCSCc3c(F)cccc3Cl)c2c1C` [Example 14, 5,6 dimethyl-N-[2-[[(2-chloro-6-fluorophenyl)methyl]thio]ethyl]furo[2,3-d]pyrimidin-4-amine], for which the pest or weed control at 400 µg/mL in [1], in assay [2], in [5], in [6] and in assay [8] was 0 to 19% throughout. The mortality at 200 ppm in assay [3], in assay [4] and in [7] was 0% in each case. The mortality at 400 ppm in [3], in assay [4] and in [7] was 0% in each case. The mortality at 12 ppm in assay [9] is 0%. The mortality at 24 ppm in [9] amounted to 0%.
With `COc1ccc(CCNc2ncnc3occc23)cc1` [Example 15, N-[2-(4-methyloxyphenyl)ethyl]furo[2,3-d]pyrimidin-4-amine], the pest or weed control at 400 µg/mL in [1] fell in the range of 90 to 100%; in assay [2], 0 to 19%; in assay [5], 20 to 89%; in assay [6], 90 to 100%; in assay [8], 20 to 89%. Besides, the mortality at 200 ppm in assay [3], in assay [4] and in [7] was 0% in each case. The mortality at 400 ppm in assay [3], in [4] and in [7] was 0% each time. Further, the mortality at 12 ppm in assay [9] was found to be 0%. Further, the mortality at 24 ppm in assay [9] is 0%.
For `Cc1coc2ncnc(NCCSCc3c(F)cccc3Cl)c12` [Example 16, 5-methyl-N-[2-[[ (2-chloro-6-fluorophenyl)methyl]thio]ethyl]furo[2,3-d]pyrimidin-4-amine], the pest or weed control at 400 µg/mL in assay [1], in [2], in [5], in assay [6] and in assay [8] was 0 to 19% in each case. Further, the mortality at 200 ppm in assay [3], in assay [4] and in assay [7] was 0% in each case. Also, the mortality at 400 ppm in [3], in [4] and in assay [7] was 0% in each case. Further, the mortality at 12 ppm in [9] was found to be 0%. Moreover, in assay [9], the mortality at 24 ppm was 0%.
